Where “and” joins values, the source holds several entries; their conditions need not be identical. Identical values can stand only once.
Experiments:
C57/B16J mice = assay: Dose-response experiments: cumulative food intake after intraperitoneal injection in fasted mice; details: food removed the day before
Method: Cumulative food intake±SEM was calculated and analyzed using Prizm. […] From the curve, the EC50 at each time point for each drug was determined.

POMC neurons [1] = assay: Electrophysiology: cell-attached recordings of action potential frequency of POMC-EGFP neurons in hypothalamic (ARC) slices; details: applied to the bath for 3 min
Method: Under ultraviolet (450-480 nm) excitation, POMC neurons were clearly distinguished from adjacent, non-fluorescent neurons visualized under infrared optics.
200 μm thick coronal slices were cut from the ARC of four-week old male POMC-EGFP mice. […] Recordings were made in Krebs at 35° C. Slices were visualized on an Axioskop FS2 plus (Zeiss) through standard infra red optics and using epifluorescence through a FITC (longpass) filter set. […] Cell-attached recordings were made from fluorescent neurons using an Axopatch 200B amplifier (Axon Instruments) and Clampex 8 (Axon Instruments). Action potentials frequencies were determined using an event detection program (Mini Analysis; Synaptosoft Inc., Decatur, Ga.). Drugs were applied to the bath for 3 min.
Data were analyzed by determining the average firing rate for 500 sec prior to drug addition, and analyzing treatments relative to this frequency (that is, firing rates were normalized to the pre-treatment frequency).

POMC neurons [2] = details: Heisler et al., Science 297(5581):609-11 (2002); cited from earlier work
[3] = in vivo; cited from earlier work

## Cc1c(C(=O)NN2CCCCC2)nn(-c2ccc(Cl)cc2Cl)c1-c1ccc(I)cc1 [AM 251, N-(piperidin-1-yl)-1-(2,4-dichlorophenyl)-5-(4-iodophenyl)-4-methyl-1H-pyrazole-3-carboxamide]
C57/B16J mice; Hour 1 post-injection
  Cumulative food intake expressed as a proportion of the food intake in saline treated animals, MEAN: 0.97
C57/B16J mice; Hour 2 post-injection
  Cumulative food intake expressed as a proportion of the food intake in saline treated animals, MEAN: 0.85
C57/B16J mice; Hour 4 post-injection
  Cumulative food intake expressed as a proportion of the food intake in saline treated animals, MEAN: 0.88
C57/B16J mice; Hour 8 post-injection
  Cumulative food intake expressed as a proportion of the food intake in saline treated animals, MEAN: 0.90
C57/B16J mice; headed Hour 8 a second time
  Cumulative food intake expressed as a proportion of the food intake in saline treated animals, MEAN: 0.99

## CC(NC(C)(C)C)C(=O)c1cccc(Cl)c1 (centres unmarked) [Bupropion, bupropion]
C57/B16J mice; Hour 1 post-injection
  Cumulative food intake expressed as a proportion of the food intake in saline treated animals, MEAN: 0.32
C57/B16J mice; Hour 2 post-injection
  Cumulative food intake expressed as a proportion of the food intake in saline treated animals, MEAN: 0.64
C57/B16J mice; Hour 4 post-injection
  Cumulative food intake expressed as a proportion of the food intake in saline treated animals, MEAN: 0.97
C57/B16J mice; Hour 8 post-injection
  Cumulative food intake expressed as a proportion of the food intake in saline treated animals, MEAN: 0.96
C57/B16J mice; headed Hour 8 a second time
  Cumulative food intake expressed as a proportion of the food intake in saline treated animals, MEAN: 0.99

## NCCc1ccc(O)c(O)c1 [Dopamine]
POMC neurons [1]
  Mean effect of the drug alone on firing rate, normalized to the pre-treatment frequency: 11X (n = 9)

## CCNC(C)Cc1cccc(C(F)(F)F)c1 (centres unmarked) [Fenfluramine, fenfluramine]
POMC neurons [2]
  Effect of fenfluramine alone: 200%
POMC neurons [1]
  Mean effect of the drug alone on firing rate, normalized to the pre-treatment frequency: 2X increase (n = 6)

## CNCCC(Oc1ccc(C(F)(F)F)cc1)c1ccccc1 (centres unmarked) [Fluoxetine, fluoxetine]
[3]
  Physiological half life: about 9 hours
C57/B16J mice; Hour 1 post-injection
  Cumulative food intake expressed as a proportion of the food intake in saline treated animals, MEAN: 0.36
C57/B16J mice; Hour 2 post-injection
  Cumulative food intake expressed as a proportion of the food intake in saline treated animals, MEAN: 0.57
C57/B16J mice; Hour 4 post-injection
  Cumulative food intake expressed as a proportion of the food intake in saline treated animals, MEAN: 0.68
C57/B16J mice; Hour 8 post-injection
  Cumulative food intake expressed as a proportion of the food intake in saline treated animals, MEAN: 0.76
C57/B16J mice; headed Hour 8 a second time
  Cumulative food intake expressed as a proportion of the food intake in saline treated animals, MEAN: 1.05
POMC neurons [1]
  Mean effect of the drug alone on firing rate, normalized to the pre-treatment frequency: 3X (n = 1)

## COCCCC/C(=N\OCCN)c1ccc(C(F)(F)F)cc1 [Fluvoxamine, fluvoxamine]
C57/B16J mice; Hour 1 post-injection
  Cumulative food intake expressed as a proportion of the food intake in saline treated animals, MEAN: 0.77
C57/B16J mice; Hour 2 post-injection
  Cumulative food intake expressed as a proportion of the food intake in saline treated animals, MEAN: 0.85
C57/B16J mice; Hour 4 post-injection
  Cumulative food intake expressed as a proportion of the food intake in saline treated animals, MEAN: 0.95
C57/B16J mice; Hour 8 post-injection
  Cumulative food intake expressed as a proportion of the food intake in saline treated animals, MEAN: 0.91
C57/B16J mice; headed Hour 8 a second time
  Cumulative food intake expressed as a proportion of the food intake in saline treated animals, MEAN: 0.92

## C=C1CC[C@@]2(O)[C@H]3Cc4ccc(O)c5c4[C@@]2(CCN3CC2CC2)[C@H]1O5 [Nalmefene, nalmefene]
C57/B16J mice; Hour 1 post-injection
  Cumulative food intake expressed as a proportion of the food intake in saline treated animals, MEAN: 0.0083
C57/B16J mice; Hour 2 post-injection
  Cumulative food intake expressed as a proportion of the food intake in saline treated animals, MEAN: 0.11
C57/B16J mice; Hour 4 post-injection
  Cumulative food intake expressed as a proportion of the food intake in saline treated animals, MEAN: 0.57
C57/B16J mice; Hour 8 post-injection
  Cumulative food intake expressed as a proportion of the food intake in saline treated animals, MEAN: 0.81
C57/B16J mice; headed Hour 8 a second time
  Cumulative food intake expressed as a proportion of the food intake in saline treated animals, MEAN: 0.98

## O=C1CC[C@@]2(O)[C@H]3Cc4ccc(O)c5c4[C@@]2(CCN3CC2CC2)[C@H]1O5 [Naltrexone, naltrexone]
C57/B16J mice; Hour 1 post-injection
  Cumulative food intake expressed as a proportion of the food intake in saline treated animals, MEAN: 0.41 and 0.30
C57/B16J mice; Hour 2 post-injection
  Cumulative food intake expressed as a proportion of the food intake in saline treated animals, MEAN: 0.77 and 0.56
C57/B16J mice; Hour 4 post-injection
  Cumulative food intake expressed as a proportion of the food intake in saline treated animals, MEAN: 0.99 and 0.83
C57/B16J mice; Hour 8 post-injection
  Cumulative food intake expressed as a proportion of the food intake in saline treated animals, MEAN: 1.1 and 0.98
C57/B16J mice; headed Hour 8 a second time
  Cumulative food intake expressed as a proportion of the food intake in saline treated animals, MEAN: 0.98 and 1.01

Reference: patent US7375111B2, “Compositions for affecting weight loss” (priority 2003, dated 2008)
